Test results as given in patent US20250101034A1, “COMPOSITIONS USEFUL FOR MODULATING SPLICING” (SKYHAWK THERAPEUTICS, INC., priority 2021, published 2025).

Tests used:
[1] = system: total ATXN3 protein; experiment: ATXN3 total protein assay (MSD, SK-N-MC cells); format: cell-based, Human; details: 48 hours incubation, read-out: ATXN3 Potency - Protein IC50
Method in brief: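 SK-N-MC human neuroblastoma cells treated with compound (30 μM to 0.6 nM) for 48 h, then lysed with protease inhibitors. Total ATXN3 measured by MSD sandwich immunoassay (mouse capture, rabbit detection antibodies, anti-rabbit MSD-ST secondary), quantified against recombinant ATXN3 standards.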

[2] = system: ATXN3 transcripts containing exon 4 (E4E5); experiment: ATXN3 quantitative splicing assay (qPCR, SK-N-MC cells); format: cell-based; details: Homo sapiens, 24 h treatment, qPCR E4E5 primers/probe, read-out: ATXN3 Potency - Splicing E4E5 IC50
Method in brief: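 SK-N-MC cells treated 24 h with compound (30 μM to 0.6 nM, 0.3% DMSO) 24 h after plating; lysates reverse-transcribed and analysed by TaqMan qPCR. E4E5 primers/probe detect exon 4–containing transcripts; E8E9 measures total ATXN3, alongside exon 4–skipped transcript detection.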

Compound | IC50 [1] | IC50 [2]
CC#Cc1c(C[C@H](C)N)sc2c(NCc3cccs3)cnnc12 [Compound 107, 6-[(2S)-2-aminopropyl]-7-(prop-1-yn-1-yl)-N-[(thiophen-2-yl)methyl]thieno[3,2-c]pyridazin-4-amine] | 0.101 to 0.5 µM | 0.101 to 0.5 µM
Cc1c(C[C@@H](N)[C@H](C)F)sc2c(NCc3cccs3)cnnc12 [Compound 110, 6-[(2R,3S)-2-amino-3-fluorobutyl]-7-methyl-N-[(thiophen-2-yl)methyl]thieno[3,2-c]pyridazin-4-amine] | 0.101 to 0.5 µM | 0.101 to 0.5 µM
Cc1c(C[C@@H](N)[C@@H](C)F)sc2c(NCc3cccs3)cnnc12 [Compound 111, 6-[(2R,3R)-2-amino-3-fluorobutyl]-7-methyl-N-[(thiophen-2-yl)methyl]thieno[3,2-c]pyridazin-4-amine] | 0.501 to 5 µM | 0.501 to 5 µM
C[C@H](N)Cc1sc2c(N[C@@H](C)c3cccs3)cnnc2c1Br [Compound 112, 6-[(2S)-2-aminopropyl]-7-bromo-N-[(1S)-1-(thiophen-2-yl)ethyl]thieno[3,2-c]pyridazin-4-amine] | 10 to 40 µM | 10 to 40 µM
C[C@H](N)Cc1sc2c(N[C@H](C)c3cccs3)cnnc2c1Br [Compound 113, 6-[(2S)-2-aminopropyl]-7-bromo-N-[(1R)-1-(thiophen-2-yl)ethyl]thieno[3,2-c]pyridazin-4-amine] | 10 to 40 µM | 10 to 40 µM
Cc1c(CO)sc2c(NCc3cccs3)cnnc12 [Compound 114, (7-methyl-4-{[(thiophen-2-yl)methyl]amino}thieno[3,2-c]pyridazin-6-yl)methanol] | 10 to 40 µM | 10 to 40 µM
C#Cc1c(C[C@H](C)N)sc2c(NCc3ccco3)cnnc12 [Compound 115, 6-[(2S)-2-aminopropyl]-7-ethynyl-N-[(furan-2-y1)methyl]thieno[3,2-c]pyridazin-4-amine] | 0.101 to 0.5 µM | 1e-05 to 0.1 µM
C#Cc1c(C[C@H](C)N)sc2c(NCc3cccs3)cnnc12 [Compound 116, 6-[(2S)-2-aminopropyl]-7-ethynyl-N-[(thiophen-2-yl)methyl]thieno[3,2-c]pyridazin-4-amine] | 0.101 to 0.5 µM | 1e-05 to 0.1 µM
Cc1c(C(F)(F)[C@H](C)N)sc2c(NCc3cccs3)cnnc12 [Compound 125, 6-[(2S)-2-amino-1,1-difluoropropyl]-7-methyl-N-(thiophen-2-ylmethyl)thieno[3,2-c]pyridazin-4-amine] | 0.501 to 5 µM | 0.501 to 5 µM
C[C@H](F)[C@H](N)Cc1sc2c(NCc3cccs3)cnnc2c1Br [Compound 135, 6-[(2R,3S)-2-amino-3-fluorobutyl]-7-bromo-N-[(thiophen-2-yl)methyl]thieno[3,2-c]pyridazin-4-amine] | 0.101 to 0.5 µM | 0.101 to 0.5 µM
Cc1c(C[C@@H](N)CCOC(F)F)sc2c(NCc3cccs3)cnnc12 [Compound 139, 6-[(2S)-2-amino-4-(difluoromethoxy)butyl]-7-methyl-N-(thiophen-2-ylmethyl)thieno[3,2-c]pyridazin-4-amine] | 0.501 to 5 µM | 0.501 to 5 µM
C[C@H](N)C(F)(F)c1sc2c(NCc3cccs3)cnnc2c1Br [Compound 140, 6-[(2S)-2-amino-1,1-difluoropropyl]-7-bromo-N-[(thiophen-2-yl)methyl]thieno[3,2-c]pyridazin-4-amine] | 0.501 to 5 µM | 0.501 to 5 µM

Now from value to molecule:

IC50 [1] | IC50 [2] | Compound
5 to 10 µM | 5 to 10 µM | Cc1c(CC(N)CC2(F)CC2)sc2c(NCc3cccs3)cnnc12 (stereo not drawn) [Compound 117, 6-[2-amino-3-(1-fluorocyclopropyl)propyl]-7-methyl-N-[(thiophen-2-yl)methyl]thieno[3,2-c]pyridazin-4-amine]
10 to 40 µM | 10 to 40 µM | Cc1c(C[C@@H](N)C[C@H]2CC2(F)F)sc2c(NCc3cccs3)cnnc12 [Compound 127, 6-[(2S)-2-amino-3-[(1S)-2,2-difluorocyclopropyl]propyl]-7-methyl-N-(thiophen-2-ylmethyl)thieno[3,2-c]pyridazin-4-amine]
10 to 40 µM | 10 to 40 µM | Cc1c(C[C@@H](N)C[C@@H]2CC2(F)F)sc2c(NCc3cccs3)cnnc12 [Compound 128, 6-[(2S)-2-amino-3-[(1R)-2,2-difluorocyclopropyl]propyl]-7-methyl-N-(thiophen-2-ylmethyl)thieno[3,2-c]pyridazin-4-amine]
0.501 to 5 µM | 5 to 10 µM | Cc1c(C[C@H](N)C[C@H]2CC2(F)F)sc2c(NCc3cccs3)cnnc12 [Compound 129, 6-[(2R)-2-amino-3-[(1S)-2,2-difluorocyclopropyl]propyl]-7-methyl-N-(thiophen-2-ylmethyl)thieno[3,2-c]pyridazin-4-amine]
0.501 to 5 µM | 0.501 to 5 µM | Cc1c(C[C@H](N)C[C@@H]2CC2(F)F)sc2c(NCc3cccs3)cnnc12 [Compound 130, 6-[(2R)-2-amino-3-[(1R)-2,2-difluorocyclopropyl]propyl]-7-methyl-N-(thiophen-2-ylmethyl)thieno[3,2-c]pyridazin-4-amine]
5 to 10 µM | 0.501 to 5 µM | Cc1c(C[C@@H](N)COC2CC2)sc2c(NCc3cccs3)cnnc12 [Compound 131, 6-[(2R)-2-amino-3-cyclopropoxypropyl]-7-methyl-N-[(thiophen-2-yl)methyl]thieno[3,2-c]pyridazin-4-amine]
10 to 40 µM | 10 to 40 µM | Cc1c(C[C@@H](N)COC(F)(F)F)sc2c(NCc3cccs3)cnnc12 [Compound 132, 6-[(2R)-2-amino-3-(trifluoromethoxy)propyl]-7-methyl-N-[(thiophen-2-yl)methyl]thieno[3,2-c]pyridazin-4-amine]
0.501 to 5 µM | 0.501 to 5 µM | Cc1c(C[C@@H](N)COC(F)F)sc2c(NCc3cccs3)cnnc12 [Compound 133, 6-[(2R)-2-amino-3-(difluoromethoxy)propyl]-7-methyl-N-[(thiophen-2-y1)methyl]thieno[3,2-c]pyridazin-4-amine]
0.101 to 0.5 µM | 0.101 to 0.5 µM | COC[C@H](N)Cc1sc2c(NCc3cccs3)cnnc2c1Br [Compound 136, 6-[(2R)-2-amino-3-methoxypropyl]-7-bromo-N-[(thiophen-2-yl)methyl]thieno[3,2-c]pyridazin-4-amine]
0.501 to 5 µM | 0.501 to 5 µM | N[C@@H](COC1CC1)Cc1sc2c(NCc3cccs3)cnnc2c1Br [Compound 137, 6-[(2R)-2-amino-3-cyclopropoxypropyl]-7-bromo-N-[(thiophen-2-yl)methyl]thieno[3,2-c]pyridazin-4-amine]
0.501 to 5 µM | 0.501 to 5 µM | Cc1c(CC(N)CF)sc2c(NCc3cccs3)cnnc12 (stereo not drawn) [Compound 141, 6-(2-amino-3-fluoropropyl)-7-methyl-N-[(thiophen-2-yl)methyl]thieno[3,2-c]pyridazin-4-amine]
0.501 to 5 µM | 0.501 to 5 µM | C#CC[C@H](N)Cc1sc2c(NCc3cccs3)cnnc2c1C [Compound 142, 6-[(2S)-2-aminopent-4-yn-1-yl]-7-methyl-N-(thiophen-2-ylmethyl)thieno[3,2-c]pyridazin-4-amine]
